Experimental data reported in publication PMC5751205, “Rapid Non-Enzymatic Glycation of the Insulin Receptor under Hyperglycemic Conditions Inhibits Insulin Binding In Vitro: Implications for Insulin Resistance” (International Journal of Molecular Sciences, 2017).
Like-named read-outs stand apart in the source and are kept apart here. No end group written: not given here.

How the values were obtained:
insulin-HRP [1] = target: T1, insulin-HRP (Homo sapiens, UniProt P01308); experiment: Insulin-HRP binding to IR peptides (ELISA plate, ABTS read-out); conditions: Ins-HRP at 10 nM, IR peptide in the absence of glycation
T1 sequence (P01308 90-110): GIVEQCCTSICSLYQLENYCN
T1 sequence (P01308 25-54): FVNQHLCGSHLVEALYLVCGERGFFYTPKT
Experimental: (§1) Each peptide was held constant at 0.1 mg/mL in pH 7.4 phosphate-buffered saline, and 100 μL aliquots were pipetted into rows of a Costar high-binding ELISA plate and incubated for an hour. The plate was washed 3× with 0.1% Tween 20 (Sigma-Aldrich) in 0.05 M phosphate buffered saline (PBS). Two hundred µL 2% polyvinyl alcohol in PBS were added to each well and incubated 1 h. The plates were then washed 3× again with 0.1% Tween 20. A solution of insulin conjugated to horse-radish peroxidase (HRP), 0.83 µg in 1.0 mL PBS, was made and serially diluted with PBS by thirds, ten times. These serial dilutions were added to the plate wells, incubated for an hour, and then washed 3× as before. Finally, 100 µL of stock ABTS [2,2′-azino-bis(3-ethylbenzothiazoline-6-sulphonic acid)] (Millipore, Burlington, MA, USA) was added to each well, incubated for thirty minutes, and the plate was then read on a SpectraMax Plus scanning microplate spectrophotometer at 405 nm. Controls wells lacking peptide but with PVA, INS-HRP and ABTS measured non-specific binding that was subtracted from the absorbance values of the rest of the wells. All experiments were run in triplicate and the averages of the corrected absorbances were then plotted against the concentration of the INS–HRP for each peptide to yield binding curves. Because binding curves are calculated by plotting differences, it was not possible to incorporate error bars into these curves.

insulin-HRP [2] = target: T1, insulin-HRP; experiment: Effect of glycation on insulin-HRP binding to IR peptides; conditions: for Change of INS-HRP binding to the peptide after glycation: 6-day exposure to 20 mM glucose, triplicate, averaged; for Ins-HRP Binding Inhibition (Glycated): change in Ins-HRP binding at 10 nM after exposure of the peptide to glycating conditions (six days at 20 mM glucose)
Experimental: Insulin receptor peptides (Figure 1) were synthesized by RS Synthesis (Louisville, KY, USA) to at least 95% purity by high pressure liquid chromatography (HPLC) and mass spectrometry. Peptides or recombinant human insulin (rHu) (Lilly, Indianapolis, IN, USA) were dissolved in glucose-free, phenol-red-free, Dulbecco’s modified Eagle growth medium (DMEM) to 1 mg/mL. Stock 2.0 M D-glucose (Sigma-Aldrich, St. Louis, MO, USA) solutions were also made in DMEM. The peptide and glucose stocks were combined to yield final reaction solutions with peptides at 0.1 mg/mL and glucose at […]. Combinations were incubated at 36–38 °C for 1–6 days. Reactions were stopped and solutions were stored by freezing at −20 °C. Glycated peptides were desalted by centrifugal filtration through Ultrafree-MC 5 kda or Ultracel 3 kda filter units. Resulting retentate was resuspended in low ionic strength saline immediately before performing mass spectrometry.
as §1
The same technique just described in Section 4.3 was used to measure the effect of glycation on INS-HRP binding to IR peptides as above with one change: IR peptides were serially diluted instead of the INS-HRP, which was held constant. This methodological modification was made in order to reduce the amount of IR peptide required to obtain results. As in Section 4.3, each experiment was run in triplicate and the results averaged.

[3] = ref [41],[42], cited from earlier work
Experimental: Table 1 Table summarizing experiments to identify motifs determining insulin-receptor (IR) peptide glycation and whether glycation of IR peptides results in inhibition of insulin binding to these peptides. Specifically, this table provides binding constants glucose binding non-covalently to various insulin receptor (IR) peptides; glycation of the same IR peptides at 20 mM glucose for six days; the | column: Glucose Binding Kd (mM)

[4] = system: insulin receptor (IR), intact recombinant, glycated; experiment: Insulin binding to intact glycated insulin receptor by UV spectroscopy; conditions: IR incubated six days at 37 °C in 20 mM glucose, measured as decrease in absorbance
Experimental: (§2) Intact recombinant IR was obtained from Sigma-Aldrich (St. Louis, MO, USA) and utilized at 42.9 units/mL in phosphate buffered saline, pH 7.4 (PBS) or in PBS with 20 mM glucose added. PBS and 20 mM glucose solutions of IR were incubated for six days at 37 °C. An aliquot of each preparation was then subjected to centrifugal filtration and washing through Ultrafree-MC 5 kda or Ultracel 3 kda filter units. The resulting retentates were resuspended in PBS. In this way, identical preparations of unglycated IR and glycated IR were made in both PBS and in 20 mM gucose PBS. Microliter quantities of PBS buffer, or 20 mM glucose PBS, or human recombinant INS (Sigma-Aldrich, St. Louis, MO, USA) in PBS or 20 mM glucose PBS were then added serially to 100 µL of each of the four preparations of IR and to control wells containing only PBS or 20 mM glucose PBS. Experiments were carried out in a crystal 96-well plate and the serial combinations subjected to UV spectrophotometry to obtain their spectra. The spectra of the control wells were subtracted from the spectra of the experimental wells to yield expected values at each UV wavelength and differences between the controls and experimental values determined. […] Binding constants were determined from the concentration at which the binding curves inverted. […]

[5] = target: insulin receptor (IR), intact recombinant, unglycated; experiment: Insulin binding to intact unglycated insulin receptor by UV spectroscopy; conditions: one of two independent runs
Experimental: as §2

[6] = glucose binding non-covalently to the peptide, read-out: Glucose Binding Kd

10 nM Ins-HRP Binding (Native) (insulin-HRP [1])	Change of INS-HRP binding to the peptide after glycation (insulin-HRP [2])	Ins-HRP Binding Inhibition (Glycated) (insulin-HRP [2])	Substance	Kd [3, 6]	further results
YES	very significant loss of INS-HRP binding	YES	ENCSVIEGHLQ [51-61, synthetic insulin receptor peptide, residues 51-61 of human IR, insulin-like]	52 mM	Insulin-HRP binding after incubation of the peptide in 200 mM glucose (insulin-HRP [2]; 200 mM glucose, six days): nearly undetectable levels; Factor by which glycation reduces the insulin-HRP binding constant (insulin-HRP [2]; peptide incubated in 20 and 60 mM glucose over six days): approximately 2
no	–	no	ESEDSQKHNQSEYEDS [689-705, synthetic insulin receptor peptide, residues 689-705 of human IR]	63 mM	–
no	–	no	GMDIRNNLTRLHELE [37-51, synthetic insulin receptor peptide, residues 37-51 of human IR (UniProt P06213)]	40 mM	–
YES	very significant loss of INS-HRP binding	YES	H-FRVYGLESLKDLF [91-103]	37 mM	–
YES	very significant loss of INS-HRP binding	YES	H-NLTVIRGSRLFFNY [105-118]	35 mM	–
no	–	no	H-TIDWSRILDS [157-166]	57 mM	–
no	–	no	H-TQGKLFFHYNPK [453-464]	57 mM	–
no	–	no	HLYFGEVCPGMDIRNN [28-43, synthetic insulin receptor peptide, residues 28-43 of human IR (UniProt P06213)]	50 mM	–
–	–	–	Insulin: recombinant human insulin (Lilly for glycation; Sigma-Aldrich for IR binding)	0.25 mM	Decrease in amount of INS binding due to glycation of the IR, in 20 mM glucose ([4]; binding in PBS with 20 mM glucose): one third; Decrease in amount of INS binding due to glycation of the IR, in PBS ([4]; binding in PBS without glucose): one third; Binding constant of unglycated INS for unglycated IR in 20 mM glucose ([5]; PBS pH 7.4 with 20 mM glucose): 110 µg/mL of INS; Binding constant of unglycated INS for unglycated IR in PBS ([5]; PBS pH 7.4 without glucose, concentration at which the binding curve inverted): 70 µg/mL of INS; Kd ([3]; glucose binding non-covalently, second of two values printed for insulin, read-out: Glucose Binding Kd (mM), second value): 30 mM
no	–	no	KTFEDYLHNVVFV [730-742, synthetic insulin receptor peptide, residues 730-742 of human IR]	60 mM	–
